# Laboratory results published in patent US10793580B2, “Substituted pyrazoloazepin-8-ones and their use as phosphodiesterase inhibitors” (LEO Pharma A/S, priority 2016, dated 2020).
# Molecular target: human PDE4D catalytic domain (Homo sapiens (Human), UniProt Q08499)
# Assay: PDE4 Assay (TR-FRET, FAM-cAMP cleavage)
# Type: biochemical
# Conditions: Table 16, Examples 277-296; read-out: PDE4 IC50 range
# Method in brief: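 PDE4D catalytic domain (S380-L740) incubated briefly with unlabelled cAMP plus FAM-cAMP and titrated compound. Reaction stopped with binding buffer holding metal-ion nanoparticles that bind AMP phospho groups and Tb donor, and AMP formation read by TR-FRET. IC50 versus controls, reported as ranges (nM).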
# Chain of human PDE4D catalytic domain (Q08499 380-740): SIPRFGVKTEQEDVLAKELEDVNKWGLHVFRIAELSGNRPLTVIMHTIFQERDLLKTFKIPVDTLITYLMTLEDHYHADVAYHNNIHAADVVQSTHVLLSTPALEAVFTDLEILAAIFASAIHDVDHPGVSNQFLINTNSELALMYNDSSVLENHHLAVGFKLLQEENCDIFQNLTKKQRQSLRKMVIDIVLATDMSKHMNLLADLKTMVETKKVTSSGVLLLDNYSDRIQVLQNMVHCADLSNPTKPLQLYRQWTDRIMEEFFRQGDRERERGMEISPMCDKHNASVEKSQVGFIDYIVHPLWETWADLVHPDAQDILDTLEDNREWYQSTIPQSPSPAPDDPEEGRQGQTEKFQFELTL
row,SMILES,IC50 [nM]
1,"CCn1nc(C[C@@H](C)COC(=O)c2cnc(C)nc2)c2c1C(=O)NCC1(CCOCC1)C2 [Example 288, [(2R)-3-(1-ethyl-8-oxo-spiro[6,7-dihydro-4H-pyrazolo[3,4-c]azepine-5,4′-tetrahydropyran]-3-yl)-2-methyl-propyl] 2-methylpyrimidine-5-carboxylate]",< 100
2,"CCn1nc(C[C@@H](C)COC(=O)c2cnc(C)o2)c2c1C(=O)NCC1(CCOCC1)C2 [Example 282, [(2R)-3-(1-ethyl-8-oxo-spiro[6,7-dihydro-4H-pyrazolo[3,4-c]azepine-5,4′-tetrahydropyran]-3-yl)-2-methyl-propyl] 2-methyloxazole-5-carboxylate]",< 100

# Same assay, conditions: Table 17, Examples 297-316; read-out: PDE4 IC50 range
row,SMILES,IC50 [nM]
1,"CCn1nc(CC(C)(C)COC(=O)C2CCOCC2)c2c1C(=O)NCC1(CCOCC1)C2 [Example 307, [3-(1-ethyl-8-oxo-spiro[6,7-dihydro-4H-pyrazolo[3,4-c]azepine-5,4′-tetrahydro-pyran]-3-yl)-2,2-dimethyl-propyl] tetrahydropyran-4-carboxylate]",< 100
2,"CCn1nc(CC(C)(C)COC(=O)C2CCN(C(=O)OC)CC2)c2c1C(=O)NCC1(CCOCC1)C2 [Example 315, [3-(1-ethyl-8-oxo-spiro[6,7-dihydro-4H-pyrazolo[3,4-c]azepine-5,4′-tetrahydro-pyran]-3-yl)-2,2-dimethyl-propyl] 1-methoxycarbonyl-peridine-4-carboxylate]",< 100

# Same assay, conditions: human PDE4D catalytic domain (UniProt Q08499 [S380-L740]); 50% inhibition of substrate cleavage; read-out: PDE4 IC50 range
row,SMILES,IC50 [nM]
1,"CCn1nc(CCCCOC(=O)c2cc(C)n(C)n2)c2c1C(=O)NCC1(CCOCC1)C2 [Example 272, 4-(1-ethyl-8-oxo-spiro[6,7-dihydro-4H-pyrazolo[3,4-c]azepine-5,4′-tetrahydro-pyran]-3-yl)butyl 1,5-dimethylpyrazole-3-carboxylate]",< 100
2,"CCn1nc(CC(C)(C)COC(=O)c2ccc(F)cc2)c2c1C(=O)NCC1(CCOCC1)C2 [Example 192, [3-(1-ethyl-8-oxo-spiro[6,7-dihydro-4H-pyrazolo[3,4-c]azepine-5,4′-tetrahydropyran]-3-yl)-2,2-dimethyl-propyl] 4-fluorobenzoate]",< 100
3,"CCn1nc(CC(C)(C)COC(=O)c2ccc(S(=O)(=O)C3CCCC3)cc2)c2c1C(=O)NCC1(CCOCC1)C2 [Example 209, [3-(1-ethyl-8-oxo-spiro[6,7-dihydro-4H-pyrazolo[3,4-c]azepine-5,4′-tetrahydropyran]-3-yl)-2,2-dimethyl-propyl] 4-cyclopentylsulfonylbenzoate]",< 100
4,"CCn1nc(CCCOC(=O)c2cc(Cl)ccc2OC)c2c1C(=O)NCC1(CCOCC1)C2 [Example 60, 3-(1-ethyl-8-oxo-spiro[6,7-dihydro-4H-pyrazolo[3,4-c]azepine-5,4′-tetrahydropyran]-3-yl)propyl 5-chloro-2-methoxy-benzoate]",< 100
5,"CCn1nc(CCCOC(=O)c2ccc(OC)c(C)c2)c2c1C(=O)NCC1(CCOCC1)C2 [Example 33, 3-(1-ethyl-8-oxo-spiro[6,7-dihydro-4H-pyrazolo[3,4-c]azepine-5,4′-tetrahydropyran]-3-yl)propyl 4-methoxy-3-methyl-benzoate]",< 100
6,"CCn1nc(C[C@@H](C)COC(=O)c2ccccc2C)c2c1C(=O)NCC1(CCOCC1)C2 [Example 141, [(2R)-3-(1-ethyl-8-oxo-spiro[6,7-dihydro-4H-pyrazolo[3,4-c]azepine-5,4′-tetrahydropyran]-3-yl)-2-methyl-propyl] 2-methylbenzoate]",< 100
7,"CCn1nc(CC(C)(C)COC(=O)c2ccc(C(=O)N3CCCC3)cc2)c2c1C(=O)NCC1(CCOCC1)C2 [Example 221, [3-(1-ethyl-8-oxo-spiro[6,7-dihydro-4H-pyrazolo[3,4-c]azepine-5,4′-tetrahydro-pyran]-3-yl)-2,2-dimethyl-propyl] 4-(pyrrolidine-1-carbonyl)benzoate]",< 100
8,"CCn1nc(CCCCOC(=O)c2cscn2)c2c1C(=O)NCC1(CCOCC1)C2 [Example 269, 4-(1-ethyl-8-oxo-spiro[6,7-dihydro-4H-pyrazolo[3,4-c]azepine-5,4′-tetrahydropyran]-3-yl)butyl thiazole-4-carboxylate]",< 100
9,"CCn1nc(C[C@@H](C)COC(=O)c2cccc(S(=O)(=O)CC)c2)c2c1C(=O)NCC1(CCOCC1)C2 [Example 156, [(2R)-3-(1-ethyl-8-oxo-spiro[6,7-dihydro-4H-pyrazolo[3,4-c]azepine-5,4′-tetrahydropyran]-3-yl)-2-methyl-propyl] 3-ethylsulfonylbenzoate]",< 100
10,"CCn1nc(CC(C)(C)COC(=O)CCOC)c2c1C(=O)NCC1(CCOCC1)C2 [Example 186, [3-(1-ethyl-8-oxo-spiro[6,7-dihydro-4H-pyrazolo[3,4-c]azepine-5,4′-tetrahydropyran]-3-yl)-2,2-dimethyl-propyl] 3-methoxypropanoate]",< 100
11,"CCn1nc(CCCOC(=O)c2cnn(C)c2)c2c1C(=O)NCC1(CCOCC1)C2 [Example 238, 3-(1-ethyl-8-oxo-spiro[6,7-dihydro-4H-pyrazolo[3,4-c]azepine-5,4′-tetrahydropyran]-3-yl)propyl 1-methylpyrazole-4-carboxylate]",< 100
12,"CCn1nc(CC(C)(C)COC(=O)c2cccc(S(=O)(=O)N3CCN(C(C)=O)CC3)c2)c2c1C(=O)NCC1(CCOCC1)C2 [Example 215, [3-(1-ethyl-8-oxo-spiro[6,7-dihydro-4H-pyrazolo[3,4-c]azepine-5,4′-tetrahydropyran]-3-yl)-2,2-dimethyl-propyl] 3-(4-acetylpiperazin-1-yl)sulfonylbenzoate]",< 100
13,"CCn1nc(CCCOC(=O)c2cc(F)cc(C(F)(F)F)c2)c2c1C(=O)NCC1(CCOCC1)C2 [Example 72, 3-(1-ethyl-8-oxo-spiro[6,7-dihydro-4H-pyrazolo[3,4-c]azepine-5,4′-tetrahydro-pyran]-3-yl)propyl 3-fluoro-5-(trifluoromethyl)benzoate]",< 100
14,"CCn1nc(CCCOC(=O)c2ccc(F)c(F)c2)c2c1C(=O)NCC1(CCOCC1)C2 [Example 23, 3-(1-ethyl-8-oxo-spiro[6,7-dihydro-4H-pyrazolo[3,4-c]azepine-5,4′-tetrahydropyran]-3-yl)propyl 3,4-difluorobenzoate]",< 100
15,"CCn1nc(CCCOC(=O)c2cccc(C(=O)N3CCN(C)CC3)c2)c2c1C(=O)NCC1(CCOCC1)C2 [Example 119, 3-(1-ethyl-8-oxo-spiro[6,7-dihydro-4H-pyrazolo[3,4-c]azepine-5,4′-tetrahydropyran]-3-yl)propyl 3-(4-methylpiperazine-1-carbonyl)benzoate]",< 100
16,"CCn1nc(CCCOC(=O)c2ccc(F)cc2C(F)(F)F)c2c1C(=O)NCC1(CCOCC1)C2 [Example 71, 3-(1-ethyl-8-oxo-spiro[6,7-dihydro-4H-pyrazolo[3,4-c]azepine-5,4′-tetrahydro-pyran]-3-yl)propyl 4-fluoro-2-(trifluoromethyl)benzoate]",< 100
17,"CCn1nc(CCCOC(=O)C2CCN(C(=O)OC)CC2)c2c1C(=O)NCC1(CCOCC1)C2 [Example 263, [3-(1-ethyl-8-oxo-spiro[6,7-dihydro-4H-pyrazolo[3,4-c]azepine-5,4′-tetrahydro-pyran]-3-yl)propyl] 1-methoxy-carbonylpiperidine-4-carboxylate]",< 100
18,"CCn1nc(CCCOC(=O)c2ccc(C)cc2Cl)c2c1C(=O)NCC1(CCOCC1)C2 [Example 42, 3-(1-ethyl-8-oxo-spiro[6,7-dihydro-4H-pyrazolo[3,4-c]azepine-5,4′-tetrahydropyran]-3-yl)propyl 2-chloro-4-methyl-benzoate]",< 100
19,"CCn1nc(C[C@@H](C)COC(=O)c2ccc(C(=O)N3CCOCC3)cc2)c2c1C(=O)NCC1(CCOCC1)C2 [Example 174, [(2R)-3-(1-ethyl-8-oxo-spiro[6,7-dihydro-4H-pyrazolo[3,4-c]azepine-5,4′-tetrahydropyran]-3-yl)-2-methyl-propyl] 4-(morpholine-4-carbonyl)benzoate]",< 100
20,"CCn1nc(CC(C)(C)COC(=O)c2ccc(C(=O)N(C)C)cc2)c2c1C(=O)NCC1(CCOCC1)C2 [Example 220, [3-(1-ethyl-8-oxo-spiro[6,7-dihydro-4H-pyrazolo[3,4-c]azepine-5,4′-tetra-hydropyran]-3-yl)-2,2-dimethyl-propyl] 4-(di-methylcarbamoyl)benzoate]",< 100
